According to ChEMBL document CHEMBL2434925, “Synthesis and antiviral activity of a novel class of (5-oxazolyl)phenyl amines” (Eur J Med Chem, 2013):

Assays:
[1] = Selectivity index, ratio of CC50 for african green monkey Vero cells to IC50 for Coxsackie B3 virus Schmitt; type: functional
Hepatitis C virus = test: Antiviral activity against HCV expressing pFL-J6/JFH/JC1 infected in human Huh7.5 cells assessed as inhibition of viral RNA synthesis after 96 hrs by one-step RT-PCR analysis; type: functional, organism-based, Hepacivirus hominis; conditions: Huh-7, 96 h
[2] = (§1) Selectivity index, ratio of CC50 for human Huh7.5 cells to IC50 for HCV expressing pFL-J6/JFH/JC1; type: functional, Huh-7
Coxsackievirus B3 = test: Antiviral activity against Coxsackie B3 virus Nancy in african green monkey Vero cells assessed as inhibition virus-induced cytopathic effect after 48 hrs; type: functional, organism-based; conditions: Enterovirus B
[3] = Cytotoxicity against african green monkey Vero cells after 96 hrs by MTT assay; type: cell-based; conditions: chlorocebus sabaeus
Coxsackievirus B6 = test: Antiviral activity against Coxsackie B6 virus Schmitt in african green monkey Vero cells assessed as inhibition virus-induced cytopathic effect after 48 hrs; type: functional, organism-based; conditions: Enterovirus B
[4] = Selectivity index, ratio of CC50 for african green monkey Vero cells to IC50 for Coxsackie B3 virus Nancy; type: functional
[5] = Cytotoxicity against human Huh7.5 cells after 96 hrs by MTT assay; type: cell-based, Huh-7
Huh-7 = test: as §1; type: functional

Row | SMILES | Ratio CC50/IC50 [1] | IC50 (Hepatitis C virus) [µM] | Ratio CC50/IC50 [2] | IC50 (Coxsackievirus B3) [µM] | CC50 at 96 h [3] [µM] | IC50 (Coxsackievirus B6) [µM] | Ratio CC50/IC50 [4] | CC50 at 96 h [5] [µM] | Ratio CC50/IC50 (Huh-7)
1 | COc1cc(NCc2cncs2)ccc1-c1cnco1 | 20.5 | 0.73 | 94.4 | 19.6 | 232 | 11.3 | 11.8 | 68.9 | –
2 | COc1cc(NCc2ccsc2)ccc1-c1cnco1 | 38.9 | 1.25 | 50.5 | 3.66 | 181 | 4.65 | 49.4 | 63.1 | –
3 | COc1cc(NCc2ccc(-c3ccccc3)s2)ccc1-c1cnco1 | 9.1 | 0.92 | 28.3 | 2.26 | 6.82 | 0.75 | 3 | 26 | –
4 | COc1cc(NCc2ccc(C(=O)O)s2)ccc1-c1cnco1 | 6.2 | 22.4 | >4.5 | 67.3 | 350 | 56 | 5.2 | > 100 | –
5 | COc1cc(/N=C/c2ccncc2)ccc1-c1cnco1 | 15.6 | 1.61 | >62.1 | 34.9 | 239 | 15.3 | 6.8 | > 100 | –
6 | COc1cc(NCc2c[nH]c3ccccc23)ccc1-c1cnco1 | 2.1 | 1.62 | 34.6 | 9.95 | 48.3 | 23.2 | 4.9 | 56.1 | –
7 | COc1cc(NCc2cc3ccccc3s2)ccc1-c1cnco1 | 6.9 | 0.5 | 57.9 | 1.39 | 7.36 | 1.07 | 5.3 | 29 | –
8 | COc1ccc(O)c(CNc2ccc(-c3cnco3)c(OC)c2)c1 | 4.3 | 9.95 | >10.1 | 9.96 | 98.2 | 22.7 | 9.9 | > 100 | –
9 | CCC[C@H](NC(=O)[C@@H]1[C@H]2CCC[C@H]2CN1C(=O)[C@@H](NC(=O)[C@@H](NC(=O)c1cnccn1)C1CCCCC1)C(C)(C)C)C(=O)C(=O)NC1CC1 [TELAPREVIR] | – | < 0.14 | – | – | – | – | – | 37.5 | > 268
